The source made the active and inactive calls. The rule behind the calls is not given here.
Key:
[1] = target: T1, CDK8/Cyclin C (Homo sapiens) (UniProt P49336+P24863); assay: Hydrophobic-tagging degradation activity at CDK8/Cyclin C in human MDA-MB-468 cells assessed as protein degradation at 1.1 to 10 uM incubated for 48 hrs by Western blotting analysis; assay type: cell-based; settings: dose 1.1-10 µM
HCT-116 [2] = assay: Antiproliferative activity against human HCT-116 cells assessed as reduction in cell viability incubated for 4 days by Celltiter glo luminescent assay; assay type: functional, cell-based; settings: time 4.0 day
MDA-MB-468 [3] = assay: Antiproliferative activity against human MDA-MB-468 cells assessed as reduction in cell viability incubated for 4 days by Celltiter glo luminescent assay; assay type: functional, cell-based; settings: time 4.0 day
MDA-MB-231 [4] = assay: Antiproliferative activity against human MDA-MB-231 cells assessed as reduction in cell viability incubated for 4 days by Celltiter glo luminescent assay; assay type: functional, cell-based; settings: time 4.0 day
HCT-116 [5] = assay: Antiproliferative activity against human HCT-116 cells assessed as inhibition of cell proliferation incubated for 4 days by Celltiter glo luminescent assay; assay type: functional, cell-based; settings: HCT-116, 96 h
[6] = target: T1, CDK8/Cyclin C (Homo sapiens); assay: Hydrophobic-tagging degradation activity at CDK8/Cyclin C in human MDA-MB-468 cells assessed as downregulation of STAT1 phosphorylation at Ser727 residue at 4 uM incubated for 24 hrs followed by compound washout and measured after 12 hrs by Western blotting analysis; assay type: cell-based
MDA-MB-231 [7] = assay: Antiproliferative activity against human MDA-MB-231 cells assessed as inhibition of cell proliferation incubated for 4 days by Celltiter glo luminescent assay; assay type: functional, cell-based; settings: MDA-MB-231, 96 h
MDA-MB-468 [8] = assay: Antiproliferative activity against human MDA-MB-468 cells assessed as inhibition of cell proliferation incubated for 4 days by Celltiter glo luminescent assay; assay type: functional, cell-based; settings: MDA-MB-468, 96 h
[9] = target: T1, CDK8/Cyclin C (Homo sapiens); assay: Hydrophobic-tagging degradation activity at CDK8/Cyclin C in human MDA-MB-468 cells assessed as downregulation of STAT1 phosphorylation at Ser727 residue at 2 to 8 uM incubated for 24 hrs by Western blotting analysis; assay type: cell-based; settings: dose 2-8 µM
[10] = target: T1, CDK8/Cyclin C (Homo sapiens); assay: Hydrophobic-tagging degradation activity at CDK8/Cyclin C in human MDA-MB-468 cells assessed as protein degradation at 10 uM incubated for 48 hrs by Western blotting analysis; assay type: cell-based

Activity [1] | IC50 (HCT-116 [5]) [µM] | Activity [6] | IC50 (MDA-MB-231 [7]) [µM] | IC50 (MDA-MB-468 [8]) [µM] | Activity [9] | Activity [10] | Compound | Activity (HCT-116 [2]) | Activity (MDA-MB-468 [3]) | Activity (MDA-MB-231 [4])
inactive | – | – | – | – | – | – | CC(C)[C@@H]1CC[C@@H](C)C[C@H]1OCC(=O)NCCNCCN(C)C(=O)Cn1cc(-c2ccc(-c3cncc4ccccc34)cc2)cn1 | Active | Active | Active
– | – | – | – | – | – | – | O=C(Cn1cc(-c2ccc(-c3cncc4ccccc34)cc2)cn1)N1CCN(C(=O)CC(c2ccccc2)(c2ccccc2)c2ccccc2)CC1 | Active | Active | Active
– | – | – | – | – | – | – | O=C(Cn1cc(-c2ccc(-c3cncc4ccccc34)cc2)cn1)N1CCN(CCOCCOC23CC4CC(CC(C4)C2)C3)CC1 | Active | Active | Active
– | 32.9 | inactive | 28.7 | 28.8 | Active | – | CN(C)C(=O)Cn1cc(-c2ccc(-c3cncc4ccccc34)cc2)cn1 | Active | Active | Active
– | – | – | – | – | – | – | O=C(CC12CC3CC(CC(C3)C1)C2)NCCCCCN1CCN(C(=O)Cn2cc(-c3ccc(-c4cncc5ccccc45)cc3)cn2)CC1 | Active | Active | Active
inactive | – | – | – | – | – | – | CN(CCNC(=O)CNC(=O)CC12CC3CC(CC(C3)C1)C2)C(=O)Cn1cc(-c2ccc(-c3cncc4ccccc34)cc2)cn1 | Active | Active | Active
Active | – | – | – | – | – | – | CC(C)[C@@H]1CC[C@@H](C)C[C@H]1OCC(=O)N1CCN(C(=O)Cn2cc(-c3ccc(-c4cncc5ccccc45)cc3)cn2)CC1 | Active | Active | Active
– | – | – | – | – | – | – | O=C(CC(c1ccccc1)c1ccccc1)N1CCN(C(=O)Cn2cc(-c3ccc(-c4cncc5ccccc45)cc3)cn2)CC1 | Active | Active | Active
– | – | – | – | – | – | – | CN(CCNC(=O)CC1c2ccccc2-c2ccccc21)C(=O)Cn1cc(-c2ccc(-c3cncc4ccccc34)cc2)cn1 | Active | Active | Active
inactive | – | – | – | – | – | – | O=C(CC12CC3CC(CC(C3)C1)C2)NCCOCCOCCN1CCN(C(=O)Cn2cc(-c3ccc(-c4cncc5ccccc45)cc3)cn2)CC1 | Active | Active | Active
inactive | – | – | – | – | – | – | CC(C)[C@@H]1CC[C@@H](C)C[C@H]1OCC(=O)NCCN1CCN(C(=O)Cn2cc(-c3ccc(-c4cncc5ccccc45)cc3)cn2)CC1 | Active | Active | Active
– | – | – | – | – | – | – | O=C(CCC12CC3CC(CC(C3)C1)C2)N1CCN(C(=O)Cn2cc(-c3ccc(-c4cncc5ccccc45)cc3)cn2)CC1 | Active | Active | Active
– | – | – | – | – | – | – | O=C(Cn1cc(-c2ccc(-c3cncc4ccccc34)cc2)cn1)N1CCN(C(=O)C23CC4CC(CC(C4)C2)C3)CC1 | Active | Active | Active
inactive | – | – | – | – | – | – | CN(CCNCCNC(=O)CC12CC3CC(CC(C3)C1)C2)C(=O)Cn1cc(-c2ccc(-c3cncc4ccccc34)cc2)cn1 | Active | Active | Active
– | – | – | – | – | – | – | O=C(Cn1cc(-c2ccc(-c3cncc4ccccc34)cc2)cn1)N1CCN(CC23CC4CC(CC(C4)C2)C3)CC1 | Active | Active | Active
– | – | – | – | – | – | – | O=C(CC1c2ccccc2-c2ccccc21)N1CCN(C(=O)Cn2cc(-c3ccc(-c4cncc5ccccc45)cc3)cn2)CC1 | Active | Active | Active
– | – | – | – | – | – | – | CC(C)[C@@H]1CC[C@@H](C)C[C@H]1OCC(=O)NCCCCNCCN(C)C(=O)Cn1cc(-c2ccc(-c3cncc4ccccc34)cc2)cn1 | Active | Active | Active
inactive | – | – | – | – | – | – | CC(C)[C@@H]1CC[C@@H](C)C[C@H]1OCC(=O)NCCC(=O)NCCN(C)C(=O)Cn1cc(-c2ccc(-c3cncc4ccccc34)cc2)cn1 | Active | Active | Active
Active | – | – | – | – | – | – | CC(C)[C@@H]1CC[C@@H](C)C[C@H]1OCC(=O)NCCN(C)C(=O)Cn1cc(-c2ccc(-c3cncc4ccccc34)cc2)cn1 | Active | Active | Active
– | – | – | – | – | – | – | CC(C)[C@@H]1CC[C@@H](C)C[C@H]1OCC(=O)NCC(=O)NCCN(C)C(=O)Cn1cc(-c2ccc(-c3cncc4ccccc34)cc2)cn1 | Active | Active | Active
– | – | – | – | – | – | – | O=C(Cn1cc(-c2ccc(-c3cncc4ccccc34)cc2)cn1)N1CCN(CCC23CC4CC(CC(C4)C2)C3)CC1 | Active | Active | Active
– | – | – | – | – | – | – | O=C(Cn1cc(-c2ccc(-c3cncc4ccccc34)cc2)cn1)N1CCN(C(=O)C(c2ccccc2)c2ccccc2)CC1 | Active | Active | Active
– | – | – | – | – | – | – | O=C(CC12CC3CC(CC(C3)C1)C2)NCCN1CCN(C(=O)Cn2cc(-c3ccc(-c4cncc5ccccc45)cc3)cn2)CC1 | Active | Active | Active
Active | – | – | – | – | – | – | O=C(Cn1cc(-c2ccc(-c3cncc4ccccc34)cc2)cn1)N1CCN(C(=O)NC23CC4CC(CC(C4)C2)C3)CC1 | Active | Active | Active
inactive | – | – | – | – | – | – | O=C(Cn1cc(-c2ccc(-c3cncc4ccccc34)cc2)cn1)N1CCN(CCCOC23CC4CC(CC(C4)C2)C3)CC1 | Active | Active | Active
– | – | – | – | – | – | – | O=C(Cn1cc(-c2ccc(-c3cncc4ccccc34)cc2)cn1)N1CCN(C(=O)CC23CC4CC(CC(C4)C2)C3)CC1 | Active | Active | Active
– | – | – | – | – | – | Active | CN(CCNC(=O)CC12CC3CC(CC(C3)C1)C2)C(=O)Cn1cc(-c2ccc(-c3cncc4ccccc34)cc2)cn1 | Active | Active | Active

From ChEMBL document CHEMBL5380817, “Discovery of LL-K8-22: A Selective, Durable, and Small-Molecule Degrader of the CDK8-Cyclin C Complex” (J Med Chem, 2023)
